# Literature values in patent publication US6897334B2 (Board of Regents of the University of Nebraska, priority 2003, dated 2005).
# Settings: background statement
smiles,measurement,value
"CCOC(=O)CN(C)C(=N)N [creatine ethyl ester, Creatine ethyl ester]",solubility in an aqueous solution,over 200 mg/ml
